Holding throughout (format): in vivo, mouse
Data set [1] can be described thus: toxicological results, single I.P. dose, DL0 and DL50. Conditions: mice; for LD50: mouse, in vivo, ip. The source says: DL0, DL50, single I.P. dose administered to the aforementioned strains of mice.
For data set [2], the system named is melanoma B16. The data set can be described thus: antitumor activity on melanoma B16, products of examples 33-39, I.P. The following applies: B6 D2 F1, I.P. D1, D5, D9, 3×10 mg/kg. How it is done:
The experiments are always carried out on SPF female mice, B6 D2 F1/JIco (first generation hybrids between the lines C57BL/6 and DBA/2).
On the day of the graft (day 0), an inoculum of 2×10^6 tumor cells in a volume of 0.5 ml is administered to each mouse by the intraperitoneal route (I.P.). This inoculum is prepared from a sub-cutaneous tumor excised from a donor female mouse. After excision the tumor is fragmented by means of a pair of scissors in the NCTC 109 medium. After filtration through sterile gauze in order to remove large cellular fragments, the homogeneous cell suspension obtained is counted by means of a MALASSEZ cell and diluted to the desired concentration (4×10^6tumor cells per ml) by dilution with the NCTC 109 medium.
This was performed in the manner described for the leukemia L1210 (see above).
(§1) The doses of the products of the invention used in the different experiments are expressed in milligrams per kilogram of body weight.
(§2) The products to be injected were dissolved in isotonic sodium chloride solution.
(§3) or 3 I.P. injections on D1, D5, D9.
(§4) In each experiment the animals of the control group received 1 or more injections, depending on the experimental protocol used, by the same route (I.P. or I.V.) of the same volume (0.2 ml/20 g) of the vehicle without the active principle (isotonic sodium chloride solution).
(§5) the number and percentage of the total of the mice surviving to D60,
(§6) the T/C×100 for the treated groups.
(§7) T representing the mean survival time of the mice in the treated group,
(§8) C representing the mean survival time of the mice in the control group (controls).

Data set [3] deals with L1210 U.S.A. The data set can be described thus: antitumor activity on leukemia L1210 U.S.A., products of examples 33-39, I.P. On the procedure: The experiments were always carried out on female mice which were specific pathogen-free (S. P. F.),
either of the line DBA/2JIco
or of the line B6 D2 F1/JIco (first generation hybrids between the lines C57BL/6 and DBA/2).
On the day of the graft (by convention day 0=D0) an inoculum of 1×10^5 tumor cells in a volume of 0.2 ml is administered to each mouse by the intraperitoneal route (I.P.).
This inoculum is prepared by diluting ascites fluid taken from the peritoneum of a donor female mouse in NCTC 109 medium (Eurobio Laboratories, Paris, France), counting of the cells in a MALASSEZ cell under a microscope and adjustment of the concentration to 5×10^5cells […] by means of the same medium.
The tumor line is an American strain of the line L1210.
After the tumor graft, the mice are distributed at random in cages of 5 animals. Subsequently, these cages containing 5 mice are themselves distributed at random into a control group (control) and groups treated with the I.C. products.
as §1, §2
2 protocols for treatment were used in the different experiments:
either a single injection on D1, by the intraperitoneal (I.P.) or intravenous (I.V.) route,
as §3, §4, §5, §6, §7, §8

Where [4] appears, read: B6 D2 F1, I.P. D1, D5, D9, 3×1.25 mg/kg.
The mark [5] stands for this setting: B6 D2 F1, I.P. D1, D5, D9, 3×5 mg/kg.
Setting [6] is: B6 D2 F1, I.P. D1, D5, D9, 3×10 mg/kg.
Where [7] appears, read: DBA2, I.P. D1, D5, D9, 3×5 mg/kg.

Each structure is given as a SMILES string.

One may read the LD50 as the dose at which mortality reaches 50%. Low readings indicate a more toxic substance, high ones a less toxic substance. In the case of `CO[C@@H]1O[C@H](C)C[C@H](NC(=O)N(CCCl)N=O)[C@H]1O` [IC. 85-1591, methyl 3-[3-(2-chloroethyl) 3-nitrosoureido] 3,4,6-trideoxyβ-D-xylo-hexopyranoside], the DL0 in data set [1] was at least 20 mg/kg. Also, in data set [1], the LD50 is around 40 mg/kg. Moreover, the results for the Number of survivors in data set [2], in data set [3] (setting [4]) and in data set [3] (setting [5]) were 3/10, 0/10 and 2/10, respectively. Further, the T/C in data set [2] is 194; in data set [3] (setting [4]), 116; in data set [3] (setting [5]), 217; in data set [3] (setting [6]) it was 600; in data set [3] (DBA2, I.P. D1, 1×20 mg/kg), above 600; in data set [3] (setting [7]), above 600. Also, the “Number of survivors on D60” value in data set [3] (setting [6]) is reported as 8/10; in data set [3] (DBA2, I.P. D1, 1×20 mg/kg) it was 7/10; in data set [3] (setting [7]), 6/10.

The compound `CO[C@H]1C[C@@H](NC(=O)N(CCCl)N=O)[C@H](O)[C@@H](CO)O1` [IC. 85-1673, methyl 3-[3-(2-chloroethyl) 3-nitrosoureido] 2,3-dideoxy β-D-arabino-hexopyranoside] showed a median lethal dose (LD50) in data set [1] of around 20 mg/kg. Moreover, the Number of survivors in data set [2] is listed as 4/10; in data set [3] (setting [4]), 0/10; in data set [3] (setting [5]), 6/10. For the same compound, the T/C came out at 232 in data set [2], 158 in data set [3] (setting [4]) and 626 in data set [3] (setting [5]).

For the origin of these results see US4902791A, “Nitrosourea derivatives, process for their preparation and medicaments containing them” (Sanofi S.A., priority 1983, dated 1990).
